Measured values published in US10174013B2, “Benzimidazole derivatives as kinase inhibitors” (SELVITA S.A., priority 2012, dated 2019).
Read-outs that look alike come from different tables or passages of the source.

Tests used:
[1] = target: DYRK1 (Homo sapiens (Human), UniProt Q13627); experiment: ADP-Glo Kinase Assay, DYRK1; type: biochemical; conditions: 1 μM compound; for inhibition at 1 µM: read-out: DYRK1A % INH (1 μM)
Method: (§1) Compounds of the present invention were tested for their inhibitory activity against Pim-1, Pim-2, Pim-3, Flt3 wt, Flt3 ITD, CDK2/E and DYRK1. The testing of the compounds was carried out using the ADP-Glo™ Kinase Assay from Promega Corporation (Madison, Wis., USA).
(§2) The ADP-Glo™ Kinase Assay is a luminescent ADP detection assay to measure kinase activity by quantifying the amount of ADP produced during a kinase reaction. The kinase assay is performed in kinase assay buffer (5 mM MOPS, pH 7.5, 5 mM MgCl2, 0.4 mM EDTA, 1.5 mM DTT). Test samples initially dissolved in DMSO at 10 mM were diluted with the assay buffer to 1000 nM. A 30 μL volume/well of a mixture of substrates containing ATP (final ATP concentration in each kinase assay was equal to its apparent ATP Km).
(§3) The assay was performed in two steps: first, after the kinase reaction, an equal volume of ADP-Glo™ Reagent was added to terminate the kinase reaction and deplete the remaining ATP. Second, the Kinase Detection Reagent was added to simultaneously convert ADP to ATP and allowed the newly synthesized ATP to be measured using a luciferase/luciferin reaction. The luminescent signal generated was proportional to the ADP concentration produced and was correlated with kinase activity. A microplate spectrophotometer (Synergy 2 multi-mode microplate reader [BioTek]) was used for detecting the luminescence. The data was normalized and the percent of inhibition was obtained according to the following equation: […]

[2] = system: HepG2 cells; experiment: Growth inhibition, MTS assay, HepG2; type: cell-based, Human; conditions: MTS cell viability, read-out: HepG2 ED50
Description: (§4) The following cell lines, were obtained and used in tests as outlined below: • Human myelomonocytic, biphenotypic leukemia MV4-11 cells (harboring a Flt3-ITD mutation); • Human Acute Myeloid Leukemia MOLM16 cells; • Human Acute Myeloid Leukemia MOLM13 cells (harboring a Flt3-ITD mutation); • Human Myeloid Leukemia KG-1 cells; • Human erythroleukemia HEL92 cells; • Human mantle cell lymphoma Jeko-1 cells; • Human hepatocellular carcinoma HepG2 cells; and • Human colon adenocarcinoma SW-480 cells.
(§5) The assays were carried out according to the following protocol, which is described as an example for the MV4-11 cells:
(§6) Ten thousand MV4-11 cells were inoculated into each well of a 96-well microplate (manufactured by Corning Corp.) using Iscove's MDM medium (culture medium) containing 10% fetal calf serum (FCS). The same day, a dimethyl sulfoxide (DMSO) solution of each test compound prepared in a concentration of 10 mmol/L was further diluted with DMSO to the desired concentrations (0.1, 0.5, 1, 2.5, 5 and 10 micromol/L), and the diluted solution was added to each well. The individual wells were further cultured in 5% carbon dioxide at 37° C. for 72 hours. […] Briefly, 10 μl MTS (3-(4,5-Dimethyl-2-thiazolyl)-5-(carboxymethoxyphenyl)-2-(4-sulfophenyl)-2H-tetrazolium was added to each well, and culturing was performed in 5% carbon dioxide at 37° C. for 2 hours. After this incubation and using a microplate spectrophotometer (Synergy 2 multi-mode microplate reader (BioTek)), the absorbance of each well was measured at 490 nm. The value for cells not incubated with a test compound was designated as 100%. By comparing these values with the absorbance difference obtained at the well in which each test compound was added, the cell viability (% viability) after treatment with the test compound was calculated.

[3] = system: HEL92 cells; experiment: Growth inhibition, MTS assay, HEL92; type: cell-based, Human; conditions: MTS cell viability, read-out: HEL92 ED50
Description: as §4, §5, §6

[4] = target: Pim-3 (Homo sapiens (Human), UniProt Q86V86); experiment: ADP-Glo Kinase Assay, Pim-3; type: biochemical; conditions: 1 μM compound; for inhibition at 1 µM: read-out: Pim-3 % INH (1 μM)
Method: as §1, §2, §3

[5] = target: FLT3wt (Homo sapiens (Human), UniProt P36888); experiment: ADP-Glo Kinase Assay, Flt3 wt; type: biochemical; conditions: 1 μM compound; for inhibition at 1 µM: read-out: Flt3wt % INH (1 μM)
Chain of FLT3wt (P36888 27-993): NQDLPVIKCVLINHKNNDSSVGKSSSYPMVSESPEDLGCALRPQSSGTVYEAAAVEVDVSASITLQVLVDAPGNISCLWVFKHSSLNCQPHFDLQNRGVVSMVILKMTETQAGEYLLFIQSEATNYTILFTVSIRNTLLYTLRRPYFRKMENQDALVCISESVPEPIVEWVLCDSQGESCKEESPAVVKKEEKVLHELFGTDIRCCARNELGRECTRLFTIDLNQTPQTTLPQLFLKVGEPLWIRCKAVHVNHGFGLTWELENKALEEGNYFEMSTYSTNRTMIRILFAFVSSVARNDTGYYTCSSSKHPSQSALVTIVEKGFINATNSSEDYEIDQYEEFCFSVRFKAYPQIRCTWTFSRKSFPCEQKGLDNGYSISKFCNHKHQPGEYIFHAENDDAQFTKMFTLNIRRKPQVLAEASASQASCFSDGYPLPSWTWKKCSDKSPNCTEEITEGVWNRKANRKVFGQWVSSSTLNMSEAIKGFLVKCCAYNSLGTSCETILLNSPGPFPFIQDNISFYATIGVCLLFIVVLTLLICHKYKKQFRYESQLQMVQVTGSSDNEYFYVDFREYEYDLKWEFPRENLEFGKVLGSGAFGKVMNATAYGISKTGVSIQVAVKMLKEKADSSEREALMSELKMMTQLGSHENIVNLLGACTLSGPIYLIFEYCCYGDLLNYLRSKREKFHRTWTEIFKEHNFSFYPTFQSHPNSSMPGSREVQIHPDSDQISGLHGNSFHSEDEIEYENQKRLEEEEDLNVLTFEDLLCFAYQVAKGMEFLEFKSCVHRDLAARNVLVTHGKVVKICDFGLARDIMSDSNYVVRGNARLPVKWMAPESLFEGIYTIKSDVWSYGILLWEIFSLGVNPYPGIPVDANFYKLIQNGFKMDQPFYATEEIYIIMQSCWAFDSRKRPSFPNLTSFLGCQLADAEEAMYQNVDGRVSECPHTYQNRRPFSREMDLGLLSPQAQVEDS
Method: as §1, §2, §3

[6] = target: Pim-1 (Homo sapiens (Human), UniProt P11309); experiment: ADP-Glo Kinase Assay, Pim-1; type: biochemical; conditions: 1 μM compound; for inhibition at 1 µM: read-out: Pim-1 % INH (1 μM)
Chain of Pim-1 (P11309 whole entry): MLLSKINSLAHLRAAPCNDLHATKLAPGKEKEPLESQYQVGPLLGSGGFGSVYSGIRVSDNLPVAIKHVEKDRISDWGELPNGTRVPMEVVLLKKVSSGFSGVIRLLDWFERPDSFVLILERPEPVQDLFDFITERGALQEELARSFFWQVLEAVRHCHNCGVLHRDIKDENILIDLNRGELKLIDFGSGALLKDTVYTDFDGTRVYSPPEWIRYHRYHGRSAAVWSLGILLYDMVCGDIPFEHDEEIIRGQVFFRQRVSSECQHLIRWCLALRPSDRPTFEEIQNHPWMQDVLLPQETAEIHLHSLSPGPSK
Method: as §1, §2, §3

[7] = system: MV4-11 cells; experiment: Growth inhibition, MTS assay, MV4-11; type: cell-based, Human; conditions: MTS cell viability, read-out: MV4-11 ED50
Description: as §4, §5, §6

[8] = target: Pim-2 (Homo sapiens (Human), UniProt Q9P1W9); experiment: ADP-Glo Kinase Assay, Pim-2; type: biochemical; conditions: 1 μM compound; for inhibition at 1 µM: read-out: Pim-2 % INH (1 μM)
Chain of Pim-2 (Q9P1W9 whole entry): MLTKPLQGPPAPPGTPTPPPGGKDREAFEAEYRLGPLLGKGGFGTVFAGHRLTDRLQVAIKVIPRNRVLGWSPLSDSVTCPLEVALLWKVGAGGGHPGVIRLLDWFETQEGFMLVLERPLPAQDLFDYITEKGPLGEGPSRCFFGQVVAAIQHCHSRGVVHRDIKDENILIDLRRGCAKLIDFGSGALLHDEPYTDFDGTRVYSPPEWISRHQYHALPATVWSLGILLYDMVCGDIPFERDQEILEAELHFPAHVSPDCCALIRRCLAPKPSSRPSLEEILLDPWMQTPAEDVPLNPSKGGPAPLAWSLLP
Method: as §1, §2, §3

[9] = target: CDK2/E (Homo sapiens (Human), UniProt P24941); experiment: ADP-Glo Kinase Assay, CDK2/E; type: biochemical; conditions: 1 μM compound; for inhibition at 1 µM: read-out: CDK2/E % INH (1 μM)
Method: as §1, §2, §3

CC(C)n1c(N2CCNC[C@H]2C)nc2c([N+](=O)[O-])c(Br)c(Br)cc21 [Example 1AO]
DYRK1A % INH (1 μM) [1]: 15% | IC50 ([2]; 72 hours): 1.7 µM | IC50 ([3]; 72 hours): 3.8 µM | Pim-3 % INH (1 μM) [4]: 59% | Flt3wt % INH (1 μM) [5]: 26% | Pim-1 % INH (1 μM) [6]: 95% | IC50 ([7]; 72 hours): 0.6 µM

Cl.NC1CCCN(c2nc3c([N+](=O)[O-])c(Br)c(Br)cc3n2CC2CC2)C1 (stereo not shown) [Example 1AV]
DYRK1A % INH (1 μM) [1]: 46% | IC50 ([2]; 72 hours): 4.5 µM | Pim-2 % INH (1 μM) [8]: 54% | Pim-3 % INH (1 μM) [4]: 91% | CDK2/E % INH (1 μM) [9]: 12% | Flt3wt % INH (1 μM) [5]: 37% | Pim-1 % INH (1 μM) [6]: >95% | IC50 ([7]; 72 hours): 1.4 µM

N[C@@H]1CCN(c2nc3c([N+](=O)[O-])c(Br)c(Br)cc3n2CC2CC2)C1 [Example 1BG]
DYRK1A % INH (1 μM) [1]: >95% | IC50 ([2]; 72 hours): 4.0 µM | Pim-2 % INH (1 μM) [8]: 82% | Pim-3 % INH (1 μM) [4]: >95% | CDK2/E % INH (1 μM) [9]: <5% | Flt3wt % INH (1 μM) [5]: 23% | Pim-1 % INH (1 μM) [6]: >95% | IC50 ([7]; 72 hours): 1.6 µM

CC(C)n1c(N2CCC[C@H](N)C2)nc2c(C#N)c(Br)c(Br)cc21 [Example 1BJ]
DYRK1A % INH (1 μM) [1]: 54% | IC50 ([2]; Homo sapiens, HepG2, 72 h): 4.8 µM | inhibition at 1 µM [8]: 82% | inhibition at 1 µM [4]: > 95% | CDK2/E % INH (1 μM) [9]: <5% | inhibition at 1 µM [5]: 31% | inhibition at 1 µM [6]: > 95% | IC50 ([7]; 72 hours): 0.6 µM

CC(C)n1c(NCC2CNCCO2)nc2c(C#N)c(Br)c(Br)cc21 (stereo not shown) [Example 1BN]
inhibition at 1 µM [1]: 21% | IC50 ([2]; Homo sapiens, HepG2, 72 h): 5.1 µM | inhibition at 1 µM [8]: 29% | inhibition at 1 µM [4]: 77% | inhibition at 1 µM [9]: < 5% | inhibition at 1 µM [5]: < 5% | inhibition at 1 µM [6]: > 95% | IC50 ([7]; Homo sapiens, MV4-11, 72 h): 1.9 µM

CC(C)n1c(N[C@H]2CNC[C@@H]2O)nc2c([N+](=O)[O-])c(Br)c(Br)cc21.Cl [Example 1CE]
DYRK1A % INH (1 μM) [1]: 37% | IC50 ([2]; 72 hours): 3.2 µM | Pim-2 % INH (1 μM) [8]: 53% | Pim-3 % INH (1 μM) [4]: 76% | CDK2/E % INH (1 μM) [9]: <5% | Flt3wt % INH (1 μM) [5]: 12% | Pim-1 % INH (1 μM) [6]: >95% | IC50 ([7]; 72 hours): 2.8 µM

Cl.N[C@H]1CCN(c2nc3c([N+](=O)[O-])c(Br)c(Br)cc3n2CC2CC2)C1 [Example 1CK]
DYRK1A % INH (1 μM) [1]: 23% | IC50 ([2]; 72 hours): 5.3 µM | IC50 ([3]; 72 hours): 6.9 µM | CDK2/E % INH (1 μM) [9]: 24% | Flt3wt % INH (1 μM) [5]: 30% | Pim-1 % INH (1 μM) [6]: >95% | IC50 ([7]; 72 hours): 2.0 µM

CCn1c(N2CC[C@@H](N)C2)nc2c([N+](=O)[O-])c(Cl)c(Cl)cc21 [Example 1CO]
DYRK1A % INH (1 μM) [1]: 30% | IC50 ([2]; 72 hours): 3.9 µM | Pim-2 % INH (1 μM) [8]: 25% | Pim-3 % INH (1 μM) [4]: 69% | CDK2/E % INH (1 μM) [9]: 27% | Flt3wt % INH (1 μM) [5]: 12% | Pim-1 % INH (1 μM) [6]: >95% | IC50 ([7]; 72 hours): 4.3 µM

CC(C)n1c(N2CCC(N)CC2)nc2c([N+](=O)[O-])c(Br)c(Br)cc21 [Example 1CP]
DYRK1A % INH (1 μM) [1]: 44% | IC50 ([2]; 72 hours): 1.2 µM | IC50 ([3]; 72 hours): 5.8 µM | CDK2/E % INH (1 μM) [9]: 39% | Flt3wt % INH (1 μM) [5]: 32% | Pim-1 % INH (1 μM) [6]: >95% | IC50 ([7]; 72 hours): 0.6 µM

CC(C)n1c(NC2CCC(N)CC2)nc2c([N+](=O)[O-])c(Br)c(Br)cc21 (stereo not shown) [Example 1CQ]
DYRK1A % INH (1 μM) [1]: 28% | IC50 ([2]; Homo sapiens, HepG2, 72 h): 2 µM | IC50 ([3]; 72 hours): 6.0 µM | CDK2/E % INH (1 μM) [9]: 50% | Flt3wt % INH (1 μM) [5]: 17% | Pim-1 % INH (1 μM) [6]: >95% | IC50 ([7]; 72 hours): 1.7 µM

COCCn1c(N2CC[C@@H](N)C2)nc2c([N+](=O)[O-])c(Br)c(Br)cc21 [Example 1CS]
DYRK1A % INH (1 μM) [1]: 37% | IC50 ([2]; 72 hours): 4.7 µM | Pim-2 % INH (1 μM) [8]: 23% | Pim-3 % INH (1 μM) [4]: 56% | CDK2/E % INH (1 μM) [9]: 9% | Flt3wt % INH (1 μM) [5]: 10% | Pim-1 % INH (1 μM) [6]: >95% | IC50 ([7]; 72 hours): 4.8 µM

CCn1c(N2CCNC[C@@H]2C)nc2c(C#N)c(Br)c(Br)cc21 [Example 1DP]
inhibition at 1 µM [1]: > 95% | IC50 ([2]; Homo sapiens, HepG2, 72 h): 0.2 µM | IC50 ([3]; Homo sapiens, 72 h): 0.5 µM | inhibition at 1 µM [5]: 57% | inhibition at 1 µM [6]: > 95% | IC50 ([7]; Homo sapiens, MV4-11, 72 h): 0.1 µM

CCn1c(NCC(O)CN)nc2c([N+](=O)[O-])c(Br)c(Br)cc21 (stereo not shown) [Example 1G]
inhibition at 1 µM [1]: 12% | inhibition at 1 µM [8]: 34% | inhibition at 1 µM [4]: 57% | inhibition at 1 µM [9]: < 5% | inhibition at 1 µM [5]: 6% | inhibition at 1 µM [6]: 76%

CC(C)n1c(NCC(O)CN)nc2c([N+](=O)[O-])c(Br)c(Br)cc21 (stereo not shown) [Example 1W]
inhibition at 1 µM [1]: 40% | inhibition at 1 µM [4]: 92% | inhibition at 1 µM [9]: < 5% | inhibition at 1 µM [5]: < 5% | inhibition at 1 µM [6]: 89%

CC(C)n1c(N2CCCC(CO)C2)nc2c([N+](=O)[O-])c(Br)c(Br)cc21 (stereo not shown) [Example 22H, {1-[5,6-dibromo-4-nitro-1-(propan-2-yl)-1H-1,3-benzodiazol-2-yl]piperidin-3-yl}methanol]
inhibition at 1 µM [4]: 71% | inhibition at 1 µM [9]: 16% | inhibition at 1 µM [5]: < 5% | inhibition at 1 µM [6]: > 95%

CC(C)n1c(N2CCOCC2)nc2c([N+](=O)[O-])c(Br)c(Br)cc21 [Example 22K, 5,6-dibromo-2-(morpholin-4-yl)-4-nitro-1-(propan-2-yl)-1H-1,3-benzodiazole]
inhibition at 1 µM [1]: 28% | inhibition at 1 µM [8]: 40% | inhibition at 1 µM [4]: 85% | inhibition at 1 µM [9]: < 5% | inhibition at 1 µM [5]: 23% | inhibition at 1 µM [6]: > 95% | IC50 ([7]; Homo sapiens, MV4-11, 72 h): 4.1 µM
